Laboratory results as given in patent USRE38117E1, “Trioxane dimer compound having antiproliferative and antitumor activities” (Hauser, Inc., priority 1995, dated 2003).

How the values were obtained:
Assay type in all cases: cell-based
CCRF-CEM = assay: NCI 60 cell line screen (SRB), Leukemia
K-562 = assay: NCI 60 cell line screen (SRB), Leukemia; conditions: K-562 (Leukemia)
MOLT-4 = assay: NCI 60 cell line screen (SRB), Leukemia; conditions: for Log10GI50 / Log10LC50 / Log10TGI: MOLT-4 (Leukemia)
EKVX = assay: NCI 60 cell line screen (SRB), Non-Small Cell Lung Cancer
HOP-62 = assay: as above; conditions: HOP-62 (Non-Small Cell Lung Cancer)
HOP-92 = assay: as above; conditions: HOP-92 (Non-Small Cell Lung Cancer)
NCI-H23 = assay: as above
NCI-H460 = assay: as above
HCC-2998 = assay: NCI 60 cell line screen (SRB), Colon Cancer; conditions: HCC-2998 (Colon Cancer)
HCT-116 = assay: NCI 60 cell line screen (SRB), Colon Cancer; conditions: HCT-116 (Colon Cancer)
HCT-15 = assay: NCI 60 cell line screen (SRB), Colon Cancer; conditions: HCT-15 (Colon Cancer)
SF-295 = assay: NCI 60 cell line screen (SRB), CNS Cancer; conditions: SF-295 (CNS Cancer)
SNB-75 = assay: NCI 60 cell line screen (SRB), CNS Cancer; conditions: SNB-75 (CNS Cancer)
U251 = assay: NCI 60 cell line screen (SRB), CNS Cancer
MALME-3M = assay: NCI 60 cell line screen (SRB), Melanoma; conditions: MALME-3M (Melanoma)
SK-MEL-28 = assay: NCI 60 cell line screen (SRB), Melanoma; conditions: SK-MEL-28 (Melanoma)
SK-MEL-5 = assay: NCI 60 cell line screen (SRB), Melanoma; conditions: SK-MEL-5 (Melanoma)
UACC-257 = assay: NCI 60 cell line screen (SRB), Melanoma; conditions: UACC-257 (Melanoma)
UACC-62 = assay: NCI 60 cell line screen (SRB), Melanoma; conditions: UACC-62 (Melanoma)
OVCAR-3 = assay: NCI 60 cell line screen (SRB), Ovarian Cancer; conditions: OVCAR-3 (Ovarian Cancer)
OVCAR-4 = assay: NCI 60 cell line screen (SRB), Ovarian Cancer; conditions: OVCAR-4 (Ovarian Cancer)
786-0 = assay: NCI 60 cell line screen (SRB), Renal Cancer; conditions: 786-0 (Renal Cancer)
A498 = assay: NCI 60 cell line screen (SRB), Renal Cancer
ACHN = assay: NCI 60 cell line screen (SRB), Renal Cancer
CAKI-1 = assay: NCI 60 cell line screen (SRB), Renal Cancer; conditions: CAKI-1 (Renal Cancer)
SN12C = assay: NCI 60 cell line screen (SRB), Renal Cancer
TK-10 = assay: NCI 60 cell line screen (SRB), Renal Cancer; conditions: TK-10 (Renal Cancer)
MCF7/ADR-RES = assay: NCI 60 cell line screen (SRB), Breast Cancer
MDA-MB231/ATCC = assay: NCI 60 cell line screen (SRB), Breast Cancer
HS 578T = assay: NCI 60 cell line screen (SRB), Breast Cancer; conditions: HS 578T (Breast Cancer)
MDA-N = assay: NCI 60 cell line screen (SRB), Breast Cancer
RXF 393 = assay: NCI 60 cell line screen (SRB), Renal Cancer; conditions: RXF 393 (Renal Cancer)

COC1OC2(C)CCC3CCCC(CCOCCC4CCCC5CCC6(C)OOC45C(OC)O6)C31OO2 (stereo not shown) [Compound 6, Trioxane Ether Dimer]
−5.94 M: Log10GI50 (HCC-2998)
−4.15 M: Log10LC50 (SK-MEL-5)
−5.68 M: Log10GI50 (UACC-257)
>−4.00 M: Log10LC50 (CCRF-CEM) | Log10LC50 (K-562) | Log10TGI (K-562) | Log10LC50 (MOLT-4; listed as Ether Dimer) | Log10TGI (MOLT-4; listed as Ether Dimer) | Log10LC50 (EKVX) | Log10TGI (EKVX) | Log10LC50 (HOP-62) | Log10TGI (HOP-62) | Log10LC50 (HOP-92) | Log10LC50 (NCI-H23) | Log10TGI (NCI-H23) | Log10LC50 (NCI-H460) | Log10TGI (NCI-H460) | Log10LC50 (HCT-116) | Log10TGI (HCT-116) | Log10LC50 (HCT-15) | Log10TGI (HCT-15) | Log10LC50 (SF-295) | Log10TGI (SF-295) | Log10LC50 (SNB-75) | Log10TGI (SNB-75) | Log10LC50 (U251) | Log10TGI (U251) | Log10LC50 (MALME-3M) | Log10TGI (MALME-3M) | Log10LC50 (SK-MEL-28) | Log10TGI (SK-MEL-28) | Log10LC50 (UACC-257) | Log10TGI (UACC-257) | Log10LC50 (UACC-62) | Log10TGI (UACC-62) | Log10LC50 (OVCAR-3) | Log10TGI (OVCAR-3) | Log10LC50 (OVCAR-4) | Log10TGI (OVCAR-4) | Log10LC50 (786-0) | Log10GI50 (A498) | Log10LC50 (A498) | Log10TGI (A498) | Log10LC50 (ACHN) | Log10TGI (ACHN) | Log10LC50 (CAKI-1) | Log10TGI (CAKI-1) | Log10LC50 (SN12C) | Log10TGI (SN12C) | Log10LC50 (TK-10) | Log10LC50 (MCF7/ADR-RES) | Log10TGI (MCF7/ADR-RES) | Log10LC50 (MDA-MB231/ATCC) | Log10TGI (MDA-MB231/ATCC) | Log10LC50 (HS 578T) | Log10TGI (HS 578T) | Log10LC50 (MDA-N) | Log10TGI (MDA-N)
−5.51 M: Log10GI50 (HOP-92)
−4.17 M: Log10TGI (HOP-92)
4.50 M: Log10TGI (MOLT-4; listed as ether dimer)
−5.46 M: Log10GI50 (SN12C)
−5.69 M: Log10GI50 (MALME-3M)
−6.19 M: Log10GI50 (MDA-N)
−5.56 M: Log10GI50 (EKVX)
−5.25 M: Log10GI50 (MDA-MB231/ATCC)
−4.24 M: Log10GI50 (SK-MEL-28)
−5.44 M: Log10GI50 (CAKI-1)
−4.92 M: Log10GI50 (HOP-62)
−5.65 M: Log10GI50 (786-0)
−5.99 M: Log10GI50 (ACHN)
−6.75 M: Log10GI50 (K-562)
−4.88 M: Log10TGI (TK-10)
−7.39 M: Log10GI50 (SK-MEL-5)
−5.11 M: Log10GI50 (OVCAR-4)
−5.61 M: Log10GI50 (SF-295)
−5.60 M: Log10GI50 (TK-10)
−6.98 M: Log10GI50 (HCT-116)
−6.46 M: Log10GI50 (UACC-62)
−6.13 M: Log10GI50 (MCF7/ADR-RES)
−4.90 M: Log10TGI (HCC-2998) | Log10TGI (SK-MEL-5)
−6.27 M: Log10GI50 (CCRF-CEM) | Log10GI50 (MOLT-4)
−7.28 M: Log10GI50 (HCT-15)
−4.61 M: Log10TGI (CCRF-CEM)
−6.34 M: Log10GI50 (NCI-H23)
−4.04 M: Log10LC50 (HCC-2998)
greater than −400. M: Log10LC50 (MOLT-4; listed as either dimer)
−4.53 M: Log10TGI (786-0)
−6.35 M: Log10GI50 (U251)
−6.10 M: Log10GI50 (OVCAR-3)
−6.23 M: Log10GI50 (NCI-H460)

C[C@@H]1CC[C@H]2[C@@H](C)C(=O)O[C@@H]3O[C@@]4(C)CC[C@@H]1[C@]32OO4 [QHS, 3,6,9-trimethyl-9,10b-epidioxyperhydropyrano[4,3,2-jk]benzoxepin-2-one, reference compound]
−4.08 M: Log10GI50 (RXF 393)
−4.33 M: Log10GI50 (K-562)
greater than 10^−4 molar: drug concentration necessary to achieve primary growth inhibition (percentage growth +50) (MOLT-4; MOLT-4, read from dose response curves FIGS. 10a-10e)
>−4.00 M: Log10LC50 (K-562) | Log10GI50 (EKVX) | Log10LC50 (EKVX) | Log10TGI (EKVX) | Log10GI50 (HOP-62) | Log10LC50 (HOP-62) | Log10TGI (HOP-62) | Log10GI50 (HOP-92) | Log10LC50 (HOP-92) | Log10TGI (HOP-92) | Log10GI50 (NCI-H23) | Log10LC50 (NCI-H23) | Log10TGI (NCI-H23) | Log10GI50 (NCI-H460) | Log10LC50 (NCI-H460) | Log10TGI (NCI-H460) | Log10GI50 (HCC-2998) | Log10LC50 (HCC-2998) | Log10TGI (HCC-2998) | Log10LC50 (HCT-116) | Log10TGI (HCT-116) | Log10GI50 (HCT-15) | Log10LC50 (HCT-15) | Log10TGI (HCT-15) | Log10GI50 (SNB-75) | Log10LC50 (SNB-75) | Log10TGI (SNB-75) | Log10GI50 (U251) | Log10LC50 (U251) | Log10TGI (U251) | Log10LC50 (MALME-3M) | Log10GI50 (SK-MEL-28) | Log10LC50 (SK-MEL-28) | Log10TGI (SK-MEL-28) | Log10LC50 (SK-MEL-5) | Log10TGI (SK-MEL-5) | Log10GI50 (UACC-257) | Log10LC50 (UACC-257) | Log10TGI (UACC-257) | Log10GI50 (UACC-62) | Log10LC50 (UACC-62) | Log10TGI (UACC-62) | Log10GI50 (786-0) | Log10LC50 (786-0) | Log10TGI (786-0) | Log10GI50 (A498) | Log10LC50 (A498) | Log10TGI (A498) | Log10GI50 (ACHN) | Log10LC50 (ACHN) | Log10TGI (ACHN) | Log10LC50 (RXF 393) | Log10TGI (RXF 393) | Log10LC50 (SN12C) | Log10TGI (SN12C) | Log10GI50 (TK-10) | Log10LC50 (TK-10) | Log10TGI (TK-10) | Log10LC50 (MDA-MB231/ATCC) | Log10GI50 (HS 578T) | Log10LC50 (HS 578T) | Log10TGI (HS 578T) | Log10GI50 (MDA-N) | Log10LC50 (MDA-N) | Log10TGI (MDA-N)
−4.00 M: Log10TGI (K-562) | Log10GI50 (HCT-116) | Log10TGI (MDA-MB231/ATCC)
−4.10 M: Log10GI50 (SK-MEL-5)
−4.21 M: Log10GI50 (SN12C)
−4.06 M: Log10TGI (MALME-3M)
−4.73 M: Log10GI50 (MOLT-4)
−4.20 M: Log10GI50 (MDA-MB231/ATCC)
